Results reported in US7977322B2 (Vertex Pharmaceuticals Incorporated, priority 2004, dated 2011).

Target: T1, ΔF508-CFTR (Homo sapiens, UniProt P13569, DEL508-508)
T1 construct: expressed in transfected cells
Test: Membrane potential optical (FRET/VIPR) assay, identification of correction compounds
Type: cell-based
Conditions: Table 3, assay not given; for Emax: read-out: % Activity / % Efficacy (relative efficacy)
Procedure, shortened: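 NIH3T3 mouse fibroblasts stably expressing ΔF508-CFTR were exposed to compound for 16 h at 37° C in serum-free medium, then loaded with DiSBAC2(3)/CC2-DMPE. After addition of 10 μM forskolin plus 20 μM genistein in Cl⁻-free gluconate bath (pH 7.4), depolarization from Cl⁻ efflux was read by FRET (VIPR II).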

T1 sequence (P13569 with tags, fused parts or gaps DEL508-508): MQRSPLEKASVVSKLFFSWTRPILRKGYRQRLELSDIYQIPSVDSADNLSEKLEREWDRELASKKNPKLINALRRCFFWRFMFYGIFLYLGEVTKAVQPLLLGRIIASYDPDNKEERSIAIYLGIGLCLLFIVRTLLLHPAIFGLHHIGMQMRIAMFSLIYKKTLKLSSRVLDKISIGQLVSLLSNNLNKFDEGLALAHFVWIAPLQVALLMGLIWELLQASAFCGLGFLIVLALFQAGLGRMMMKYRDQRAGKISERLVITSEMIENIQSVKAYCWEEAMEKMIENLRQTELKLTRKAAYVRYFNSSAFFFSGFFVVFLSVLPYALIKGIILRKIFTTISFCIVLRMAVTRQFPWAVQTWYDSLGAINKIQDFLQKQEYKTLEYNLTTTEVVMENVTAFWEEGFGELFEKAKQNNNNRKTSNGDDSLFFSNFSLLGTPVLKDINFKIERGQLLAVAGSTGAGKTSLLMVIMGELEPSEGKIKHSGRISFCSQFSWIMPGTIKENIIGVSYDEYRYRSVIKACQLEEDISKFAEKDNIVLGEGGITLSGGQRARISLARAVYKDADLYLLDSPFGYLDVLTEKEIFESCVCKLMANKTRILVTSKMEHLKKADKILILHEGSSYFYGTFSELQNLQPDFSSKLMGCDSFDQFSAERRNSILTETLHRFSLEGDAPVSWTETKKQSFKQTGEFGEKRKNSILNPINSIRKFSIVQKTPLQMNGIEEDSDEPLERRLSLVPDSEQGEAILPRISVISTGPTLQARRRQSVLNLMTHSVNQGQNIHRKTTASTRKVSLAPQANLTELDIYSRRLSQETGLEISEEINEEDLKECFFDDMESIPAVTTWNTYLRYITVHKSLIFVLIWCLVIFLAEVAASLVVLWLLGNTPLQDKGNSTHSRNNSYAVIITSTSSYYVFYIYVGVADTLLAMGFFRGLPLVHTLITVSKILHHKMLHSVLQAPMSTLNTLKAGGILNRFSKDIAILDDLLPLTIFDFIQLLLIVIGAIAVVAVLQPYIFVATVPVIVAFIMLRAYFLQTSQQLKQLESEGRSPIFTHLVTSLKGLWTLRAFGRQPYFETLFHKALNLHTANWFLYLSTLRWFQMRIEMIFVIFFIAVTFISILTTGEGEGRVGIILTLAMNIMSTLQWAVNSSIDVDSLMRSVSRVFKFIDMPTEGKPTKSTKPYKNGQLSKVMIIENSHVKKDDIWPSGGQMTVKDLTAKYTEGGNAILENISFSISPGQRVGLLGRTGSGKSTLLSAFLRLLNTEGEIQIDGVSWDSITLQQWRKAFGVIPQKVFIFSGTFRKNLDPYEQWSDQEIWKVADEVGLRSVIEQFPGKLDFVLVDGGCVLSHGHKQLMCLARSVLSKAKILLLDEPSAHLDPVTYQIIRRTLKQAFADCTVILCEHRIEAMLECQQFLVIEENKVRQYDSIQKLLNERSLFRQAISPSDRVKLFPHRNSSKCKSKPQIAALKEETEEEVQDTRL

EC50	Emax	% Activity / % Efficacy (relative efficacy)	Compound
< 10 µM	> 100%	–	COc1cccc(C2(C(=O)Nc3ncc(C(c4ccccc4Cl)N4CC[C@@H](O)C4)s3)CC2)c1 (some centres unmarked) [Example 452]
10 to 25 µM	25 to 100%	–	O=C(Nc1nc(-c2ccc(Cl)c(Cl)c2)cs1)C1(c2ccc3c(c2)OCO3)CC1 [Example 117]
< 10 µM	–	+++ (“+++” means>100%)	COc1ccc(C2(C(=O)Nc3ncc(Cc4ccccc4Cl)s3)CC2)cc1OC [Example 55]
< 10 µM	> 100%	–	COc1ccc(C2(C(=O)Nc3ncc(Sc4cccc(Cl)c4)s3)CC2)cc1 [Example 37]
< 10 µM	> 100%	–	Cn1nnc2cc(C3(C(=O)Nc4ncc(Cc5ccccc5Cl)s4)CC3)ccc21 [Example 304]
< 10 µM	> 100%	–	CCN(CC)C(c1cnc(NC(=O)C2(c3ccc4c(c3)OCO4)CC2)s1)c1ccccc1OC (centres unmarked) [Example 365]
10 to 25 µM	> 100%	–	COc1cccc(C(c2csc(NC(=O)C3(c4ccc5c(c4)OCO5)CC3)n2)N2CCC(O)CC2)c1 (centres unmarked) [Example 360]
< 10 µM	> 100%	–	CS(=O)(=O)c1ccc(C(c2cnc(NC(=O)C3(c4ccc5c(c4)OCO5)CC3)s2)N2CCCCC2)cc1 (centres unmarked) [Example 388]
< 10 µM	–	+++ (“+++” means>100%)	COc1ccc(C2(C(=O)Nc3nc(-c4ccc(S(C)(=O)=O)cc4)cs3)CC2)cc1 [Example 125]
< 10 µM	> 100%	–	O=C(Nc1ncc(C(c2ccccc2Cl)N2CC[C@H](O)C2)s1)C1(c2ccc3c(c2)OCO3)CC1 (some centres unmarked) [Example 310]
10 to 25 µM	–	++ (“++” means between 25% to 100%)	NC(=O)C1(C(=O)Nc2ncc(Cc3ccccc3Cl)s2)CC1 [Example 91]
< 10 µM	–	+++ (“+++” means>100%)	O=C(c1cnc(NC(=O)C2(c3ccc4c(c3)OCO4)CC2)s1)c1ccccc1Cl [Example 136]
< 10 µM	–	+++ (“+++” means>100%)	CCN(CC)c1ccc(-c2csc(NC(=O)C3(c4ccc5c(c4)OCO5)CC3)n2)cc1 [Example 120]
10 to 25 µM	25 to 100%	–	CCC(c1cnc(NC(=O)C2(c3ccc4c(c3)OCO4)CC2)s1)N1CCCC1 (centres unmarked) [Example 397]
< 10 µM	> 100%	–	O=C(Nc1ncc(C(c2ccccc2Cl)N2CC[C@@H](O)C2)s1)C1(c2ccc(Cl)cc2)CC1 (some centres unmarked) [Example 449]
10 to 25 µM	25 to 100%	–	O=C(Nc1nn(-c2ccccc2)cc1-c1cccs1)C1(c2ccc3c(c2)OCO3)CC1 [Example 286]
< 10 µM	> 100%	–	Cc1ccccc1C1(C(=O)Nc2ncc(C(c3ccccc3Cl)N3CC[C@@H](O)C3)s2)CC1 (some centres unmarked) [Example 444]
< 10 µM	–	+++ (“+++” means>100%)	CCOC(=O)c1nc(NC(=O)C2(c3ccc4c(c3)OCO4)CC2)sc1Cc1ccccc1OC [Example 202]
< 10 µM	–	++ (“++” means between 25% to 100%)	CCCc1nc(NC(=O)C2(c3ccc4c(c3)OCO4)CC2)sc1C(=O)O [Example 191]
< 10 µM	> 100%	–	COc1ccc(C2(C(=O)Nc3nc(-c4ccccc4OC)cs3)CC2)cc1 [Example 121]
< 10 µM	–	+++ (“+++” means>100%)	O=C(Nc1nc(-c2ccccc2)cs1)C1(c2ccc3c(c2)OCO3)CC1 [Example 80]
< 10 µM	–	+++ (“+++” means>100%)	CCCc1nc(NC(=O)C2(c3ccc4c(c3)OCO4)CC2)sc1C(=O)NCC [Example 192]
< 10 µM	–	+++ (“+++” means>100%)	COc1ccccc1Oc1cnc(NC(=O)C2(c3ccc4c(c3)OCO4)CC2)s1 [Example 94]

EC50	Emax	% Activity / % Efficacy (relative efficacy)	Compound
< 10 µM	–	+++ (“+++” means>100%)	COc1ccc(F)cc1Cc1cnc(NC(=O)C2(c3ccc4c(c3)OCO4)CC2)s1 [Example 182]
–	> 100%	–	CCOc1ccccc1C(NC(CO)C(C)C)c1cnc(NC(=O)C2(c3ccc4c(c3)OCO4)CC2)s1 (centres unmarked) [Example 478]
< 10 µM	> 100%	–	O=C(Nc1ncc(C(NC2CC2)c2ccccc2Cl)s1)C1(c2ccc3c(c2)OCO3)CC1 (centres unmarked) [Example 415]
25 to 60 µM	< 25%	–	CCN(CC)CCn1cc(Cc2ccccc2Cl)s/c1=N/C(=O)C1(c2ccc(OC)cc2)CC1 [Example 73]
< 10 µM	> 100%	–	O=C(Nc1ncc(C(Cc2ccccc2Cl)N2CCOCC2)s1)C1(c2ccc3c(c2)OCO3)CC1 (centres unmarked) [Example 461]
< 10 µM	> 100%	–	CCCc1nc(NC(=O)C2(c3ccc4c(c3)OCO4)CC2)sc1C(=O)OCC [Example 108]
< 10 µM	> 100%	–	CC(=O)O[C@@H]1CCN(C(c2cnc(NC(=O)C3(c4ccc5c(c4)OCO5)CC3)s2)c2ccccc2Cl)C1 (some centres unmarked) [Example 321]
< 10 µM	–	+++ (“+++” means>100%)	COc1cccc(Cc2cnc(NC(=O)C3(c4ccc5c(c4)OCO5)CC3)s2)c1 [Example 181]
10 to 25 µM	> 100%	–	COCC1CCCN1C(c1cnc(NC(=O)C2(c3ccc4c(c3)OCO4)CC2)s1)C(C)(C)C (centres unmarked) [Example 389]
10 to 25 µM	> 100%	–	Cc1ccccc1C(c1cnc(NC(=O)C2(c3ccc4c(c3)OCO4)CC2)s1)N1CC[C@@H](O)C1 (some centres unmarked) [Example 466]
< 10 µM	> 100%	–	CC(C)[C@H](CO)NC(c1cnc(NC(=O)C2(c3ccc4c(c3)OCO4)CC2)s1)c1ccccc1F (some centres unmarked) [Example 483]
< 10 µM	> 100%	–	CC(C)(C)[C@H](CO)NC(c1cnc(NC(=O)C2(c3ccc4c(c3)OCO4)CC2)s1)c1ccccc1Cl (some centres unmarked) [Example 488]
< 10 µM	25 to 100%	–	CC(C)(C)c1cc(NC(=O)C2(c3ccc4c(c3)OCO4)CC2)c(C(N)=O)s1 [Example 290]
< 10 µM	25 to 100%	–	COC[C@@H]1CCCN1C(c1cccc(OC)c1)c1cnc(NC(=O)C2(c3ccc4c(c3)OCO4)CC2)s1 (some centres unmarked) [Example 345]
< 10 µM	> 100%	–	COc1ccc(C2(C(=O)Nc3ncc(C(c4ccccc4Cl)N4CC[C@@H](O)C4)s3)CC2)cc1 (some centres unmarked) [Example 420]
< 10 µM	25 to 100%	–	CS(=O)(=O)Nc1cccc(C2(C(=O)Nc3ncc(Cc4ccccc4Cl)s3)CC2)c1 [Example 308]
< 10 µM	> 100%	–	O=C(Nc1ncc(C(NCCc2ccccn2)c2ccccc2Cl)s1)C1(c2ccc3c(c2)OCO3)CC1 (centres unmarked) [Example 430]
< 10 µM	–	+++ (“+++” means>100%)	COc1ccc(C2(C(=O)Nc3ncc(Cc4c(F)cccc4OC)s3)CC2)cc1 [Example 193]
< 10 µM	25 to 100%	–	CS(=O)(=O)c1ccc(C2(C(=O)Nc3ncc(Cc4ccccc4Cl)s3)CC2)cc1 [Example 309]
< 10 µM	> 100%	–	CC(C)(C)CCNC(c1cnc(NC(=O)C2(c3ccc4c(c3)OCO4)CC2)s1)c1ccccc1Cl (centres unmarked) [Example 428]
< 10 µM	> 100%	–	O=C(Nc1ncc(C(c2ccccc2Cl)N2CC[C@@H](O)C2)s1)C1(c2ccccc2)CC1 (some centres unmarked) [Example 423]
< 10 µM	> 100%	–	CC(C)[C@H](CO)NC(c1cnc(NC(=O)C2(c3ccc4c(c3)OCO4)CC2)s1)c1cc(F)ccc1F (some centres unmarked) [Example 484]
